This experiment has as its target T1, hNLRP3 (Homo sapiens, UniProt Q96P20).
T1 construct: THP-1 cells were purchased from the American Type Culture Collection; host or cells: THP-1 cells, PMA-differentiated
Description: IL-1β production in PMA-differentiated THP-1 cells stimulated with gramicidin. The note with it: gramicidin 5 μM, IL-1β in supernatant, Table 2. The experiment is classed as cell-based. The protocol: Bioassay: IL-1β Production in PMA-Differentiated THP-1 Cells Stimulated with Gramicidin. Procedure 1:
Cell culture—THP-1 cells were purchased from the American Type Culture Collection and sub-cultured according to instructions from the supplier. Prior to experiments, cells were cultured in RPMI 1640 containing 10% heat inactivated FBS, penicillin (100 units/ml) and streptomycin (100 μg/ml), and maintained in log phase prior to experimental setup. Prior to the experiment THP-1 were treated with PMA (Phorbol 12-myristate 13-acetate) (10 μg/ml) for 24 hours. The day of the experiment the media was removed and attaching cells were treated with trypsin for 2 minutes, cells were then collected, washed with PBS (phosphate buffer saline), spin down, resuspended in 2% heat inactivated FBS with RPMI at a concentration of 1×10^6 cells/ml, and 100 ul was plated in a 96 well plate. Cells were incubated with compounds for 1 hours and then stimulated with Gramicidin (5 μM) (Enzo) for 2 hours. Cell free supernatant was collected and the production of IL-1β was evaluated by ELISA. Compounds were dissolved in dimethyl sulfoxide (DMSO) and added to the culture medium to achieve desired concentration (e.g. 100, 30, 10, 3, 1, 0.3 or 0.1 μM). A vehicle only control was run concurrently with each experiment. Final DMSO concentration was 1%.
THP-1 cells were purchased from the American Type Culture Collection and sub-cultured according to instructions from the supplier. Prior to experiments, cells were cultured in complete RPMI 1640 (containing 10% heat inactivated FBS, penicillin (100 units/ml) and streptomycin (100 μg/ml)), and maintained in log phase prior to experimental setup. Prior to the experiment THP-1 were treated with PMA (Phorbol 12-myristate 13-acetate) (20 ng/ml) for 16-18 hours. On the day of the experiment the media was removed and adherent cells were detached with trypsin for 5 minutes. Cells were then harvested, washed with complete RPMI 1640, spun down, resuspended in RPMI 1640 (containing 2% heat inactivated FBS, penicillin (100 units/ml) and streptomycin (100 μg/ml). The cells were plated in a 384-well plate at a density of 50,000 cells/well (final assay volume 50 μl). Compounds were dissolved in dimethyl sulfoxide (DMSO) and added to the culture medium to achieve desired concentration (e.g. 100, 33, 11, 3.7, 1.2, 0.41, 0.14, 0.046, 0.015, 0.0051, 0.0017 μM). Cells were incubated with compounds for 1 hour and then stimulated with gramicidin (5 μM) (Enzo) for 2 hours. Cell free supernatant was collected and the production of IL-1β was evaluated by HTRF (cisbio). A vehicle only control was run concurrently with each experiment. Final DMSO concentration was 0.38%.

Bounds are passed on as bounds.

T1 sequence (Q96P20 whole entry): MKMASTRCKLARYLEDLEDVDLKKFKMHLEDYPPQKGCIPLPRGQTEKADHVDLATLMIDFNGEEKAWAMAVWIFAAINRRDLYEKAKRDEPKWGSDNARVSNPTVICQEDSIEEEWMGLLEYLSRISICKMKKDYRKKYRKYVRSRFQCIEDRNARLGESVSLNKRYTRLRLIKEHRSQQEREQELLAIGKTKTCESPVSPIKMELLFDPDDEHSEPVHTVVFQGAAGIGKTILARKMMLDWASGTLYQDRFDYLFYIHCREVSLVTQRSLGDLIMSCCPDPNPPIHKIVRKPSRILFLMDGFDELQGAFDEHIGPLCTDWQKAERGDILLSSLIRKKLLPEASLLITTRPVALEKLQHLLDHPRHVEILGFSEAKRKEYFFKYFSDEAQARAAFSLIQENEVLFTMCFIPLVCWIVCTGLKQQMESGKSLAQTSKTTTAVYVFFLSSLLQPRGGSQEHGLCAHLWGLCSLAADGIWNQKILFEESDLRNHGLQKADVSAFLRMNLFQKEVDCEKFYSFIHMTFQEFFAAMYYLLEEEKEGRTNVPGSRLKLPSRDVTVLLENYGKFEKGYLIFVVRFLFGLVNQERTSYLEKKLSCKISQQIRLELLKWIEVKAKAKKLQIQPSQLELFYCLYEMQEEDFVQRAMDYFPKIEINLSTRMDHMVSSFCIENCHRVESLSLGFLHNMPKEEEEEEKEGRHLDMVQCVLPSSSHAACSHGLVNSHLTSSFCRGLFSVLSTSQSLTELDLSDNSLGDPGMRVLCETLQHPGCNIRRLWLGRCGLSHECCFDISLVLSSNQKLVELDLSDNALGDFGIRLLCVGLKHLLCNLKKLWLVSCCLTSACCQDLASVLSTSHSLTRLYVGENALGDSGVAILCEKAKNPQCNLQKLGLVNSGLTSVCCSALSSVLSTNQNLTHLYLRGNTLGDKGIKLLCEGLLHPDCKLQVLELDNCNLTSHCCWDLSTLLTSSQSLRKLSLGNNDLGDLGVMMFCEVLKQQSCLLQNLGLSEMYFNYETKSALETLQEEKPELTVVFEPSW

On to `N#Cc1c2c(c(NC(=O)NS(=O)(=O)c3cc(C4(O)CC4)co3)c3c1CCC3)CCC2` [Compound 206, N-(8-cyano-1,2,3,5,6,7-hexahydros-indacen-4-ylcarbamoyl)-4-(1-hydroxycyclopropyl) furan-2-sulfonamide], for which the IC50 was under 1000 nM.

Consider `O=C(Nc1c2c(c(F)c3c1CCC3)CCC2)NS(=O)(=O)c1cc(C2(O)CC2)co1` [Compound 207, N-(8-fluoro-1,2,3,5,6,7-hexahydros-indacen-4-ylcarbamoyl)-4-(1-hydroxycyclo-propyl)furan-2-sulfonamide], for which the IC50 is under 1000 nM.

`CC(C)(O)c1cnc(S(=O)(=O)NC(=O)Nc2c3c(c(F)c4c2CCC4)CCC3)s1` [Compound 209, N-(8-fluoro-1,2,3,5,6,7-hexahydros-indacen-4-ylcarbamoyl)-5-(2-hydroxypropan-2-yl)thiazole-2-sulfonamide] displayed an IC50 of under 1000 nM.

Regarding `O=C(Nc1c2c(c(Cl)c3c1CCC3)CCC2)NS(=O)(=O)c1cc(C2(O)CC2)cs1` [Compound 210, N-(8-chloro-1,2,3,5,6,7-hexahydros-indacen-4-ylcarbamoyl)-4-(1-hydroxycyclo-propyl)thiophene-2-sulfonamide], the IC50 was under 1000 nM.

In turn, `CC(C)c1cc(F)cc(C(C)C)c1NC(=O)NS(=O)(=O)c1cc(C(C)(C)O)cs1` [Compound 211, N-(4-fluoro-2,6-diisopropylphenyl-carbamoyl)-4-(2-hydroxypropan-2-yl)thiophene-2-sulfonamide] displayed an IC50 of under 1000 nM.

Take `CC(C)c1ccc(F)c(C(C)C)c1NC(=O)NS(=O)(=O)c1cc(C2(O)CC2)co1` [Compound 212]: the IC50 is under 1000 nM.

Consider `CC(C)c1ccc(F)c(C(C)C)c1NC(=O)NS(=O)(=O)c1ncc(C(C)(C)O)s1` [Compound 213, N-(3-fluoro-2,6-diisopropylphenyl-carbamoyl)-5-(2-hydroxypropan-2-yl)thiazole-2-sulfonamide], for which the IC50 was under 1000 nM.

In the case of `O=C(Nc1c2c(cc3c1CCC3)CCC2)NS(=O)(=O)c1cc(C2(O)CC2)cs1` [Compound 216], the IC50 is under 1000 nM.

In the case of `CC(C)c1cc(C#N)cc(C(C)C)c1NC(=O)NS(=O)(=O)c1cc(C(C)(C)O)cs1` [Compound 217, N-(4-cyano-2,6-diisopropylphenyl-carbamoyl)-4-(2-hydroxypropan-2-yl)thiophene-2-sulfonamide], the IC50 was under 1000 nM.

For `CC(C)c1ccc(F)c(C(C)C)c1NC(=O)NS(=O)(=O)c1cc(C2(O)CC2)cs1` [Compound 218, N-(3-fluoro-2,6-diisopropylphenyl-carbamoyl)-4-(1-hydroxycyclo-propyl)thiophene-2-sulfonamide], the IC50 was under 1000 nM.

As to `CC(C)c1cc(Cl)cc(C(C)C)c1NC(=O)NS(=O)(=O)c1ncc(C(C)(C)O)s1` [Compound 219, N-(4-chloro-2,6-diisopropylphenyl-carbamoyl)-5-(2-hydroxypropan-2-yl)thiazole-2-sulfonamide], the IC50 is under 1000 nM.

Compound `CC(C)(O)c1cnc(S(=O)(=O)NC(=O)Nc2c3c(c(C#N)c4c2CCC4)CCC3)s1` [Compound 220, N-(8-cyano-1,2,3,5,6,7-hexahydros-indacen-4-ylcarbamoyl)-5-(2-hydroxypropan-2-yl)thiazole-2-sulfonamide] came in with an IC50 of 1000 to 5000 nM.

The compound `CC(C)(O)c1cnc(S(=O)(=O)NC(=O)Nc2c3c(c(Cl)c4c2CCC4)CCC3)s1` [Compound 221, N-(8-chloro-1,2,3,5,6,7-hexahydros-indacen-4-ylcarbamoyl)-5-(2-hydroxypropan-2-yl)thiazole-2-sulfonamide] had an IC50 of under 1000 nM.

Take `N#Cc1c2c(c(NC(=O)NS(=O)(=O)c3cc(C4(O)CC4)cs3)c3c1CCC3)CCC2` [Compound 223, N-(8-cyano-1,2,3,5,6,7-hexahydros-indacen-4-ylcarbamoyl)-4-(1-hydroxycyclo-propyl)thiophene-2-sulfonamide]: the half-maximal inhibitory concentration (IC50) is under 1000 nM.

As to `CC(C)(O)c1csc(S(=O)(=O)NC(=O)Nc2c3c(c(C#N)c4c2CCC4)CCC3)c1` [Compound 224, N-(8-cyano-1,2,3,5,6,7-hexahydros-indacen-4-ylcarbamoyl)-4-(2-hydroxypropan-2-yl)thiophene-2-sulfonamide], the IC50 was under 1000 nM.

With `CC(C)c1cc(C#N)cc(C(C)C)c1NC(=O)NS(=O)(=O)c1ncc(C(C)(C)O)s1` [Compound 226, N-(4-cyano-2,6-diisopropylphenyl-carbamoyl)-5-(2-hydroxypropan-2-yl)thiazole-2-sulfonamide], the IC50 is under 1000 nM.

`CC(C)c1cccc(C(C)C)c1NC(=O)NS(=O)(=O)c1ncc(C(C)(C)O)s1` [Compound 227, N-(2,6-diisopropylphenyl-carbamoyl)-5-(2-hydroxypropan-2-yl)thiazole-2-sulfonamide] showed an IC50 of under 1000 nM.

Turning to `CC(C)c1ccc(F)c(C(C)C)c1NC(=O)NS(=O)(=O)c1cc(C(C)(C)O)cs1` [Compound 228, N-(3-fluoro-2,6-diisopropylphenyl-carbamoyl)-4-(2-hydroxypropan-2-yl)thiophene-2-sulfonamide], the IC50 is under 1000 nM.

For `CC(C)c1cc(Cl)cc(C(C)C)c1NC(=O)NS(=O)(=O)c1cc(C2(O)CC2)cs1` [Compound 229, N-(4-chloro-2,6-diisopropylphenyl-carbamoyl)-4-(1-hydroxycyclo-propyl)thiophene-2-sulfonamide], the IC50 was under 1000 nM.

In turn, `CC(C)c1cccc(C(C)C)c1NC(=O)NS(=O)(=O)c1cc(C2(O)CC2)cs1` [Compound 230, N-(2,6-diisopropylphenyl-carbamoyl)-4-(1-hydroxycyclo-propyl)thiophene-2-sulfonamide] came in with an IC50 of under 1000 nM.

On to `CC(C)(O)c1csc(S(=O)(=O)NC(=O)Nc2c3c(c(Cl)c4c2CCC4)CCC3)c1` [Compound 232, N-(8-chloro-1,2,3,5,6,7-hexahydros-indacen-4-ylcarbamoyl)-4-(2-hydroxypropan-2-yl)thiophene-2-sulfonamide], for which the IC50 was under 1000 nM.

Compound `CC(C)(O)c1cnc(S(=O)(=O)NC(=O)Nc2c3c(cc4c2CCC4)CCC3)s1` [Compound 233, N-(1,2,3,5,6,7-hexahydros-indacen-4-ylcarbamoyl)-5-(2-hydroxypropan-2-yl)thiazole-2-sulfonamide] came in with an IC50 of under 1000 nM.

`CC(C)c1cc(C#N)cc(C(C)C)c1NC(=O)NS(=O)(=O)c1cc(C2(O)CC2)co1` [Compound 235, N-(4-cyano-2,6-diisopropylphenyl-carbamoyl)-4-(1-hydroxycyclo-propyl)furan-2-sulfonamide] returned an IC50 of under 1000 nM.

In the case of `CC(C)c1cc(Cl)cc(C(C)C)c1NC(=O)NS(=O)(=O)c1cc(C2(O)CC2)co1` [Compound 236, N-(4-chloro-2,6-diisopropylphenyl-carbamoyl)-4-(1-hydroxycyclo-propyl)furan-2-sulfonamide], the IC50 was under 1000 nM.

Compound `O=C(Nc1c2c(cc3c1CCC3)CCC2)NS(=O)(=O)c1cc(C2(O)CC2)co1` [Compound 247, 1-(1,2,3,5,6,7-hexahydro-s-indacen-4-yl)-3-[4-(1-hydroxycyclopropyl)furan-2-sulfonyl]urea] returned an IC50 of under 1000 nM.

Compound `CC(C)c1ccc(F)c(C(C)C)c1NC(=O)NS(=O)(=O)c1cc(C(C)(C)O)c(Cl)s1` [Compound 250, 5-chloro-N-(3-fluoro-2,6-diisopropylphenylcarbamoyl)-4-(2-hydroxypropan-2-yl)thiophene-2-sulfonamide] gave an IC50 of 1000 to 5000 nM.

On to `CC(C)c1cc(C#N)cc(C(C)C)c1NC(=O)NS(=O)(=O)c1cc(C(C)(C)O)c(Cl)s1` [Compound 251, 5-chloro-N-(4-cyano-2,6-diisopropylphenyl-carbamoyl)-4-(2-hydroxypropan-2-yl)thiophene-2-sulfonamide], for which the IC50 was under 1000 nM.

In turn, `CC(C)c1ccc(Cl)c(C(C)C)c1NC(=O)NS(=O)(=O)c1cc(C(C)(C)O)c(Cl)s1` [Compound 252, 5-chloro-N-(3-chloro-2,6-diisopropylphenylcarbamoyl)-4-(2-hydroxypropan-2-yl)thiophene-2-sulfonamide] gave an IC50 of 5000 to 15000 nM.

The compound `CC(C)c1cc(F)cc(C(C)C)c1NC(=O)NS(=O)(=O)c1cc(C(C)(C)O)c(Cl)s1` [Compound 253, 5-chloro-N-(4-fluoro-2,6-diisopropylphenyl-carbamoyl)-4-(2-hydroxypropan-2-yl)thiophene-2-sulfonamide] came in with an IC50 of under 1000 nM.

As usually defined, the IC50 is the concentration that gives 50% inhibition.

The values are drawn from US11339136B2 (Novartis AG, priority 2016, dated 2022).
